Assay [1] in a line: Inhibition of TEAD (unknown origin) by YAP reporter assay. The arrangement: species or system Homo sapiens.
The next assay has as its system NCI-H2052. Put plainly: Antiproliferative activity against human NCI-H2052 cells. The assay is classed as functional, cell-based.
Assay [2] concerns OVCAR-8. Put plainly: Antiproliferative activity against human OVCAR-8 cells by CellTiter-Glo luminescent cell viability assay. The assay is classed as functional, cell-based. For orientation: Cellular ATP, detected with luciferase, serves as a proxy for viable cell number.
Assay [3] can be described thus: Antiproliferative activity against human HCC1576 cells by CellTiter-Glo luminescent cell viability assay. The assay is classed as functional, cell-based.
Assay [4] concerns OVCAR-8. Briefly: Antiproliferative activity against human OVCAR-8 cells assessed as minimum efficacy by CellTiter-Glo luminescent cell viability assay. The assay is classed as functional.
Assay [5] concerns Transcriptional enhancer factor TEF-5-Lipid. Put plainly: Inhibition of His-tagged TEAD3 (unknown origin) to lipid (unknown origin) interaction preincubated for 30 mins followed by biotinylated lipid addition and measured after 60 mins by TR-FRET assay. The arrangement: species or system Homo sapiens. For orientation: TR-FRET usually uses a lanthanide donor and a delayed reading to cut background.

A short description of assay [6]: Antiproliferative activity against human VMRC-LCD cells by CellTiter-Glo luminescent cell viability assay. The assay is classed as functional, cell-based.
Assay [7] is described as follows: Inhibition of His-tagged TEAD2 (unknown origin) to YAP (unknown origin) protein-protein interaction preincubated for 30 mins followed by biotinylated YAP addition and measured after 60 mins by TR-FRET assay. The arrangement: species or system Homo sapiens.
Assay [8] in a line: Inhibition of His-tagged TEAD3 (unknown origin) to TAZ (unknown origin) protein-protein interaction preincubated for 30 mins followed by biotinylated YAP addition and measured after 60 mins by TR-FRET assay. The arrangement: species or system Homo sapiens.
A short description of assay [9]: Inhibition of His-tagged TEAD2 (unknown origin) to TAZ (unknown origin) protein-protein interaction preincubated for 30 mins followed by biotinylated YAP addition and measured after 60 mins by TR-FRET assay. The arrangement: species or system Homo sapiens.
Assay [10] in a line: Inhibition of His-tagged TEAD1 (unknown origin) to YAP (unknown origin) protein-protein interaction preincubated for 30 mins followed by biotinylated YAP addition and measured after 60 mins by TR-FRET assay. More on the design: species or system Homo sapiens.
The nature of assay [11]: Inhibition of His-tagged TEAD4 (unknown origin) to TAZ (unknown origin) protein-protein interaction preincubated for 30 mins followed by biotinylated YAP addition and measured after 60 mins by TR-FRET assay. The arrangement: species or system Homo sapiens.
The subject of assay [12] is Transcriptional enhancer factor TEF-3-Lipid. Put plainly: Inhibition of His-tagged TEAD4 (unknown origin) to lipid (unknown origin) interaction preincubated for 30 mins followed by biotinylated lipid addition and measured after 60 mins by TR-FRET assay. More on the design: species or system Homo sapiens.
Assay [13] relates to Transcriptional enhancer factor TEF-4-Lipid. Put plainly: Inhibition of His-tagged TEAD2 (unknown origin) to lipid (unknown origin) interaction preincubated for 30 mins followed by biotinylated lipid addition and measured after 60 mins by TR-FRET assay. More on the design: species or system Homo sapiens.
The nature of assay [14]: Antiproliferative activity against human HCC1576 cells assessed as minimum efficacy by CellTiter-Glo luminescent cell viability assay. The format is functional.
Assay [15] can be described thus: Inhibition of His-tagged TEAD1 (unknown origin) to TAZ (unknown origin) protein-protein interaction preincubated for 30 mins followed by biotinylated YAP addition and measured after 60 mins by TR-FRET assay. The arrangement: species or system Homo sapiens.
Assay [16] concerns Transcriptional enhancer factor TEF-1-Lipid. Briefly: Inhibition of His-tagged TEAD1 (unknown origin) to lipid (unknown origin) interaction preincubated for 30 mins followed by biotinylated lipid addition and measured after 60 mins by TR-FRET assay. The arrangement: species or system Homo sapiens.
Assay [17] is described as follows: Inhibition of His-tagged TEAD3 (unknown origin) to YAP (unknown origin) protein-protein interaction preincubated for 30 mins followed by biotinylated YAP addition and measured after 60 mins by TR-FRET assay. The arrangement: species or system Homo sapiens.
Assay [18] in a line: Inhibition of His-tagged TEAD4 (unknown origin) to YAP (unknown origin) protein-protein interaction preincubated for 30 mins followed by biotinylated YAP addition and measured after 60 mins by TR-FRET assay. More on the design: species or system Homo sapiens.
Assay [19] can be described thus: Antiproliferative activity against CMT47 cells incubated for 48 hrs. The assay is classed as functional. As to conditions: Canis lupus familiaris, read-out: ED50 (the source's name).
A further assay concerns HuCCT-1. Put plainly: Antiproliferative activity against human HuCCT-1 cells incubated for 24 hrs by WST-1 assay. The format is functional, cell-based. The conditions noted are these: HuCCT-1, 24 h. In general terms: Tetrazolium assays rely on reduction of a dye to a coloured formazan, in cell work by metabolically active cells.
A short description of assay [20]: Antiproliferative activity against CMT9 cells incubated for 48 hrs. The conditions noted are these: Canis lupus familiaris, read-out: ED50 (the source's name). The assay is classed as functional.
Assay [21] in a line: Antiproliferative activity against human HBC4 cells incubated for 96 hrs by MTT assay. The assay is classed as functional, cell-based. The conditions noted are these: HBC4, 96 h.
The nature of assay [22]: Antiproliferative activity against human HBC5 cells incubated for 96 hrs by MTT assay. The format is functional, cell-based. The conditions noted are these: HBC5, 96 h.
Another assay has as its system MDA-MB-231. Briefly: Antiproliferative activity against human MDA-MB-231 cells incubated for 96 hrs by MTT assay. The assay is classed as functional, cell-based. As to conditions: MDA-MB-231, 96 h.
Another assay has as its system MDA-MB-453. Put plainly: Antiproliferative activity against human MDA-MB-453 cells incubated for 96 hrs by MTT assay. The assay is classed as functional, cell-based. As to conditions: MDA-MB-453, 96 h.
Another assay relates to HT-29. Briefly: Antiproliferative activity against human HT-29 cells incubated for 48 hrs by MTT assay. The format is functional, cell-based. As to conditions: HT-29, 48 h.
Assay [23] can be described thus: Antiproliferative activity against human HCA46 cells incubated for 48 hrs by MTT assay. The assay is classed as functional, cell-based. As to conditions: HCA46, 48 h.
Assay [24] in a line: Antiproliferative activity against human A2780/CP70 cells incubated for 48 hrs by MTT assay. The assay is classed as functional, cell-based. The conditions noted are these: A2780/CP70, 48 h.
The subject of a further assay is A2780. Put plainly: Antiproliferative activity against human A2780 cells incubated for 48 hrs by MTT assay. The format is functional, cell-based. The conditions noted are these: A2780, 48 h.
The test system of a further assay is HCT-116. Put plainly: Antiproliferative activity against human HCT-116 cells incubated for 48 hrs by MTT assay. The assay is classed as functional, cell-based. The conditions noted are these: HCT-116, 48 h.
Another assay has as its system MCF7. Put plainly: Antiproliferative activity against human MCF7 cells incubated for 48 hrs by CCK8 assay. The assay is classed as functional, cell-based. As to conditions: MCF7, 48 h.
A short description of assay [25]: Inhibition of TEAD (unknown origin) to YAP (unknown origin) protein-protein interaction expressed in HEK293T cells transfected with 8XGTIIC-Luciferase and CMV-betagalactosidase incubated for 24 hrs by luciferase reporter assay. The assay is classed as cell-based, Homo sapiens.
The nature of assay [26]: Inhibition of cell invasion in human colorectal cancer cells. The assay is classed as functional.

Broadly, the IC50 is the concentration that inhibits the measured activity by half. Take `COC(=O)c1cc(S(N)(=O)=O)ccc1NC1CCCCC1`: the IC50 in [1] was 458 nM; with NCI-H2052 it was greater than 3000 nM.

Turning to `O=C(c1c(-c2cnccn2)nn2c(=O)cc(-c3ccc(C4CCCCC4)cc3)[nH]c12)N1CC(CF)C1`, the EC50 was 200 nM in the assay with OVCAR-8 [2], 190 nM in [3] and greater than 50000 nM in assay [6]. The Emin in the assay on OVCAR-8 [4] is reported as 84%; in [14] it was 67%. The IC50 in assay [5] amounted to 40 nM; in [7], 10 nM; in assay [8] it was 60 nM; in assay [9], 10 nM; in assay [10] it was 40 nM; in assay [11], 30 nM. Besides, the IC50 in assay [12] is greater than 20 nM; in assay [13], 20 nM; in [15], 40 nM; in [16] it was 50 nM; in assay [17] it was 110 nM; in assay [18], 50 nM.

With `CC(C)c1c(C(=O)Nc2ccccc2)c(-c2ccccc2)c(-c2ccc(F)cc2)n1CC[C@@H](O)C[C@@H](O)CC(=O)O` [ATORVASTATIN], the EC50 in [19] is 7000 nM; in [20] it was 23500 nM. This compound also gave a concentration for half-maximal inhibition (IC50) in the assay on HuCCT-1 of less than 50000 nM.

For `CC(C)n1c(/C=C/[C@H](O)C[C@H](O)CC(=O)O)c(-c2ccc(F)cc2)c2ccccc21`, the IC50 (in assay [21]; in [22]; in the assay on MDA-MB-231) was less than 10000 nM each time. The figures for the EC50 in assay [19] and in assay [20] were 950 nM and 9950 nM, respectively.

Take `Cc1ccc(Nc2nccc(N(C)c3ccc4c(C)n(C)nc4c3)n2)cc1S(N)(=O)=O` [PAZOPANIB]: the IC50 (with MDA-MB-453; in assay [22]; in the assay with MDA-MB-231) was no more than 10000 nM throughout.

Consider `N#C[C@@H]1CCN(C(=O)c2cnn3c(=O)cc(-c4ccc(C5CCCCC5)cc4)[nH]c23)C1`, for which the IC50 in assay [5] was found to be 40 nM; in assay [7], 10 nM; in assay [8], 40 nM; in assay [9], 10 nM; in assay [10], 30 nM; in [11], 80 nM. Also, the IC50 in assay [12] was found to be 50 nM; in [13] it was 20 nM; in assay [15] it was 50 nM; in [16], 30 nM; in assay [17] it was 50 nM; in assay [18], 210 nM.

Turning to `O=C1C=C(Nc2ccc(O)cc2)C(=O)c2ccccc21`, the IC50 was 2680 nM in the assay with HT-29; 19800 nM in assay [23]; 5350 nM in assay [24]; 3800 nM in the assay with A2780; 4170 nM with HCT-116.

In the case of `CC(NC(=O)c1cc2nc(N(C)C)n(-c3ccc(Br)cc3)c2s1)c1ccccn1` (configuration not stated), the results for the IC50 (in [1]; with NCI-H2052) were 391 nM and 2030 nM, respectively.

Consider `CCOC(=O)c1cnn2c(=O)cc(-c3ccc(C(F)(F)F)cc3)[nH]c12`, for which the IC50 in [5] was 700 nM; in assay [7], 3000 nM; in assay [8], 1300 nM; in assay [9] it was 2000 nM; in assay [10], greater than 5000 nM; in assay [11], 20000 nM. For the same compound, the IC50 in assay [12] is greater than 50000 nM; in [13] it was 1600 nM; in assay [15] it was 1300 nM; in assay [16], 1100 nM; in [17] it was 1400 nM; in assay [18], greater than 50000 nM.

Turning to `CCC(C)(C)C(=O)O[C@H]1C[C@@H](C)C=C2C=C[C@H](C)[C@H](CC[C@@H]3C[C@@H](O)CC(=O)O3)[C@H]21` [SIMVASTATIN], the IC50 with MCF7 is greater than 10000 nM.

For `COc1ccc2c(c1)/C(=N/NC(=O)c1nnn(-c3ccccc3N)c1-c1ccc(Cl)c(Cl)c1)C(=O)N2`, in assay [25], the midpoint of inhibition, the IC50, lay at 1700 nM.

In assay [25], `Nc1nonc1-n1nnc(C(=O)N/N=C2\C(=O)Nc3ccccc32)c1-c1ccc(Cl)c(Cl)c1` displayed an IC50 of 6500 nM.

As to `N#Cc1ccc2[nH]cc(CCCCN3CCN(c4ccc5oc(C(N)=O)cc5c4)CC3)c2c1` [VILAZODONE], the “inhibition (INH)” value in assay [26] came to 36%.

In the case of `Cc1nc(Nc2ncc(C(=O)Nc3c(C)cccc3Cl)s2)cc(N2CCN(CCO)CC2)n1` [DASATINIB ANHYDROUS], the IC50 (in assay [22]; in the assay with MDA-MB-231) was less than 10000 nM each time.

These data come from ChEMBL document CHEMBL6071129, “Strategies that regulate Hippo signaling pathway for novel anticancer therapeutics” (Eur J Med Chem, 2024).
